What was measured:
Experiment in all cases: Screen Quest Fluo-8 No Wash Calcium Assay (Bz-ATP evoked Ca2+ influx, FLIPR)
Assay type in all cases: cell-based
P2X7 receptor [1] = molecular target: T1, P2X7 receptor (Mus musculus, UniProt Q9Z1M0); details: mP2X7; HEK-293 cells stably transfected with P2X7 receptor, Bz-ATP at EC80, Fluo-8 NW; potency ranges A-D
T1 construct: mP2X7 (IC50; nM); other: mP2X7; HEK-293 cells stably transfected with P2X7 receptor, Bz-ATP at EC80, Fluo-8 NW; potency
T1 sequence (Q9Z1M0 1-595): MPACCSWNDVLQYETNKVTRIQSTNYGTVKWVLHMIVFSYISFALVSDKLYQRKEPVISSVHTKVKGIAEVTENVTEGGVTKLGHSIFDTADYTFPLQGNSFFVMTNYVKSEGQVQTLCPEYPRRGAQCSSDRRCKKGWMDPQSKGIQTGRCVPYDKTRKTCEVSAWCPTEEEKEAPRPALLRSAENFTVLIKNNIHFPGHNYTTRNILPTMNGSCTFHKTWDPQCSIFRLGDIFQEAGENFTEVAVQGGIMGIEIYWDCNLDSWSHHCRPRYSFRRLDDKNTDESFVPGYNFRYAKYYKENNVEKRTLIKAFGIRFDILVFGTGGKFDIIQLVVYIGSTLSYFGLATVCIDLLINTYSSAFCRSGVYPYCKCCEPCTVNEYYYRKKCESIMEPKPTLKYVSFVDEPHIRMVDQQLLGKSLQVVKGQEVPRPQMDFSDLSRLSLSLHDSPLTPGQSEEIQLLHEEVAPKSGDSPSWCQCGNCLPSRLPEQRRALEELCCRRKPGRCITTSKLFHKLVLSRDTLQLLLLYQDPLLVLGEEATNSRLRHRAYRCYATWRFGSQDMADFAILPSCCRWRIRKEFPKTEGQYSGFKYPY
How it was run: (§1)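 HEK-293 cells stably expressing P2X7 were loaded with Fluo-8 NW for 1 h at RT, then given compound, and 5 min later Bz-ATP at EC80. Fluorescence was read by FLIPR in low divalent cation buffer (0.3 mM Ca2+, 0 mM Mg2+). IC50 came from percent inhibition relative to reference antagonist A438079.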

P2X7 receptor [2] = molecular target: T2, P2X7 receptor (Rattus norvegicus, UniProt Q64663); details: rP2X7; HEK-293 cells stably transfected with P2X7 receptor, Bz-ATP at EC80, Fluo-8 NW; potency ranges A-D
T2 construct: rP2X7 (IC50; nM); other: rP2X7; HEK-293 cells stably transfected with P2X7 receptor, Bz-ATP at EC80, Fluo-8 NW; potency
T2 sequence (Q64663 1-595): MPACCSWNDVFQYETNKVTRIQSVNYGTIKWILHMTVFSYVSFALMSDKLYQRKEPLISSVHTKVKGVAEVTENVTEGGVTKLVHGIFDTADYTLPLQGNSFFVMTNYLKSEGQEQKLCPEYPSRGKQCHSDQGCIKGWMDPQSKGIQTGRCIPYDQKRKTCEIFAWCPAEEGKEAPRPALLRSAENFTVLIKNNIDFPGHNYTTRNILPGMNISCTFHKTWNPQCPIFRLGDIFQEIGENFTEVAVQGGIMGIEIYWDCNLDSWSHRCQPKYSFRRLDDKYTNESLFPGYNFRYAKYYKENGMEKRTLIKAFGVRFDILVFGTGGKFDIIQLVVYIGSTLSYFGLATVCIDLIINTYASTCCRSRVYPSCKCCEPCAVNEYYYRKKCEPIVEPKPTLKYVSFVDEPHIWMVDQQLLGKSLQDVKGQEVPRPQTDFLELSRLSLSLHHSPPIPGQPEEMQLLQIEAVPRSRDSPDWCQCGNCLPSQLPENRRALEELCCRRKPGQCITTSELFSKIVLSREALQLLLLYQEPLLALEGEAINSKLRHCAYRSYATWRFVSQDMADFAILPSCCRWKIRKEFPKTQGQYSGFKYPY
How it was run: as §1

P2X7 receptor [3] = molecular target: T3, P2X7 receptor (Homo sapiens, UniProt Q99572); set-up: hP2X7 (IC50; nM); other: hP2X7; HEK-293 cells stably transfected with P2X7 receptor, Bz-ATP at EC80, Fluo-8 NW; potency; details: hP2X7; HEK-293 cells stably transfected with P2X7 receptor, Bz-ATP at EC80, Fluo-8 NW; potency ranges A-D
T3 sequence (Q99572 1-595): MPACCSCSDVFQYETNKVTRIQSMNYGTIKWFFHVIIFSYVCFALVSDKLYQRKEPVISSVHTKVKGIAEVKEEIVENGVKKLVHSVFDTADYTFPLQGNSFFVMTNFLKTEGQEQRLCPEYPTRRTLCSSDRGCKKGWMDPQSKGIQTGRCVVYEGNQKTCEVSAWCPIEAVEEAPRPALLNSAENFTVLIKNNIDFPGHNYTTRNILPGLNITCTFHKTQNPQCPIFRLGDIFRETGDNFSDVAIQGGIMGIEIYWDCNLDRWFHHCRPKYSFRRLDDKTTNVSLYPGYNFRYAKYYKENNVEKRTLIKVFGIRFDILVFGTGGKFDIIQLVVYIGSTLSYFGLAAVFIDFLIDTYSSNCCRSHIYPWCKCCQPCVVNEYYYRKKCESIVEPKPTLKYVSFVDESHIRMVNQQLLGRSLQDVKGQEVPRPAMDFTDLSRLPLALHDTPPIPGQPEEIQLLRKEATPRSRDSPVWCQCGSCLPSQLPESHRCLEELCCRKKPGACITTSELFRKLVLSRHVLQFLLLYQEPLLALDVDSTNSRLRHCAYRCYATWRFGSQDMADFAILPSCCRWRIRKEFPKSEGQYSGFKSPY
How it was run: as §1

Row | SMILES | IC50 (P2X7 receptor [1]) [nM] | IC50 (P2X7 receptor [2]) [nM] | IC50 (P2X7 receptor [3]) [nM]
1 | COc1ccc(Cc2noc(=O)n2CC2CCC(F)(F)CC2)cc1 [Example 154, 4-[(4,4-difluorocyclohexyl)methyl]-3-[(4-methoxyphenyl)methyl]-4,5-dihydro-1,2,4-oxadiazol-5-one] | 1000 to 10000 | 1000 to 10000 | 1000 to 10000
2 | O=c1onc(Cc2ccc(Cl)cc2Cl)n1Cc1ccc(F)cc1 [Example 74, 3-[(2,4-dichlorophenyl)methyl]-4-[(4-fluorophenyl)methyl]-4,5-dihydro-1,2,4-oxadiazol-5-one] | 1000 to 10000 | 1000 to 10000 | 1000 to 10000
3 | CCOCn1c(Cc2c(F)cccc2Cl)noc1=O [Example 101, 3-[(2-chloro-6-fluorophenyl)methyl]-4-(ethoxymethyl)-4,5-dihydro-1,2,4-oxadiazol-5-one] | > 10000 | > 10000 | > 10000
4 | O=c1onc(Cc2c(F)cccc2Cl)n1CC1CC2C(C1)C2(F)F (stereo not drawn) [Example 173, 3-[(2-chloro-6-fluorophenyl)methyl]-4-({6,6-difluorobicyclo[3.1.0]-hexan-3-yl}methyl)-4,5-dihydro-1,2,4-oxadiazol-5-one] | 200 to 1000 | < 200 | < 200
5 | O=c1onc(Cc2ccncc2)n1Cc1ccc(F)cc1 [Example 79, 4-[(4-fluorophenyl)methyl]-3-(pyridin-4-ylmethyl)-4,5-dihydro-1,2,4-oxadiazol-5-one] | > 10000 | > 10000 | > 10000
6 | CC(c1ccccc1)n1c(Cc2ccc(F)cc2)noc1=O (stereo not drawn) [Example 10, 3-[(4-fluorophenyl)methyl]-4-(1-phenylethyl)-4,5-dihydro-1,2,4-oxadiazol-5-one] | > 10000 | 1000 to 10000 | 200 to 1000
7 | O=c1onc(Cc2c(F)cccc2Cl)n1CC1CCC1 [Example 69, 3-[(2-chloro-6-fluorophenyl)methyl]-4-(cyclobutylmethyl)-4,5-dihydro-1,2,4-oxadiazol-5-one] | 1000 to 10000 | 200 to 1000 | 1000 to 10000
8 | O=c1onc(Cc2c(F)cccc2Cl)n1CC1CCC(F)CC1 (stereo not drawn) [Example 185, 3-[(2-chloro-6-fluorophenyl)methyl]-4-[(4-fluorocyclohexyl)methyl]-4,5-dihydro-1,2,4-oxadiazol-5-one] | < 200 | < 200 | < 200
9 | Cc1nn(C)c(C)c1Cc1noc(=O)n1CC1CCC(F)(F)CC1 [Example 215, 4-[(4,4-difluorocyclohexyl)methyl]-3-[(trimethyl-1H-pyrazol-4-yl)methyl]-4,5-dihydro-1,2,4-oxadiazol-5-one] | 1000 to 10000 | 200 to 1000 | < 200
10 | O=c1onc(Cc2cccnc2)n1CC1CCCCC1 [Example 123, 4-(cyclohexylmethyl)-3-(pyridin-3-ylmethyl)-4,5-dihydro-1,2,4-oxadiazol-5-one] | 1000 to 10000 | 1000 to 10000 | 1000 to 10000
11 | O=c1onc(CC2CCC(F)(F)C2)n1Cc1ccc(F)cc1 (stereo not drawn) [Example 204, 3-[(3,3-difluorocyclopentyl)methyl]-4-[(4-fluorophenyl)methyl]-4,5-dihydro-1,2,4-oxadiazol-5-one] | > 10000 | > 10000 | > 10000
12 | Cc1nc(C(F)(F)F)ccc1Cn1c(CC2CCC(F)(F)CC2)noc1=O [Example 192, 3-[(4,4-difluorocyclohexyl)methyl]-4-{[2-methyl-6-(trifluoromethyl)-pyridin-3-yl]methyl}-4,5-dihydro-1,2,4-oxadiazol-5-one] | > 10000 | > 10000 | > 10000
13 | O=c1onc(CC2CCC(F)(F)C2)n1Cc1c(F)cccc1Cl (stereo not drawn) [Example 205, 4-[(2-chloro-6-fluorophenyl)methyl]-3-[(3,3-difluorocyclopentyl)methyl]-4,5-dihydro-1,2,4-oxadiazol-5-one] | 200 to 1000 | < 200 | < 200
14 | O=c1onc(Cc2ccc(F)cc2F)n1CC1CCC(F)(F)CC1 [Example 153, 4-[(4,4-difluorocyclohexyl)methyl]-3-[(2,4-difluorophenyl)methyl]-4,5-dihydro-1,2,4-oxadiazol-5-one] | 200 to 1000 | < 200 | < 200

Second part, the compound after the results:

Row | IC50 (P2X7 receptor [1]) [nM] | IC50 (P2X7 receptor [2]) [nM] | IC50 (P2X7 receptor [3]) [nM] | SMILES
15 | > 10000 | > 10000 | 1000 to 10000 | Cc1noc(C)c1Cn1c(Cc2c(F)cccc2Cl)noc1=O [Example 36, 3-[(2-chloro-6-fluorophenyl)methyl]-4-[(dimethyl-1,2-oxazol-4-yl)methyl]-4,5-dihydro-1,2,4-oxadiazol-5-one]
16 | 1000 to 10000 | 1000 to 10000 | 1000 to 10000 | O=c1onc(C(O)c2cccc(Cl)c2Cl)n1Cc1c(F)cccc1Cl (stereo not drawn) [Example 138, 4-[(2-chloro-6-fluorophenyl)methyl]-3-[(2,3-dichlorophenyl)(hydroxy)methyl]-4,5-dihydro-1,2,4-oxadiazol-5-one]
17 | 1000 to 10000 | > 10000 | 1000 to 10000 | O=c1onc(Cc2c(F)cccc2Cl)n1Cc1ccc(C(F)(F)F)nc1 [Example 37, 3-[(2-chloro-6-fluorophenyl)methyl]-4-{[6-(trifluoromethyl)pyridin-3-yl]methyl}-4,5-dihydro-1,2,4-oxadiazol-5-one]
18 | 200 to 1000 | < 200 | 200 to 1000 | O=c1onc(CN2CCCCC2)n1Cc1c(F)cccc1Cl [Example 241, 4-[(2-chloro-6-fluorophenyl)methyl]-3-[(piperidin-1-yl)methyl]-1,2,4-oxadiazol-5(4H)-one]
19 | 1000 to 10000 | > 10000 | 1000 to 10000 | COc1cccc(Cc2noc(=O)n2Cc2c(F)cccc2Cl)c1 [Example 7, 4-[(2-chloro-6-fluorophenyl)methyl]-3-[(3-methoxyphenyl)methyl]-4,5-dihydro-1,2,4-oxadiazol-5-one]
20 | > 10000 | > 10000 | > 10000 | CCn1c(Cc2c(F)cccc2Cl)noc1=O [Example 175, 3-[(2-chloro-6-fluorophenyl)methyl]-4-ethyl-4,5-dihydro-1,2,4-oxadiazol-5-one]
21 | 1000 to 10000 | 1000 to 10000 | 1000 to 10000 | O=c1onc(Cc2cccc(Cl)c2Cl)n1Cc1c(F)cccc1Cl [Example 13, 4-[(2-chloro-6-fluorophenyl)methyl]-3-[(2,3-dichlorophenyl)methyl]-4,5-dihydro-1,2,4-oxadiazol-5-one]

— patent US11623919B2, “Heterocyclic P2X7 antagonists” (AXXAM S.P.A., priority 2017, dated 2023)
